# The source made the active and inactive calls.
# How the values were obtained:
# [1] = biological target: T1, RNA-binding protein pos-1 (Caenorhabditis elegans, UniProt G5EF15); test: disruptors of C. elegans POS-1 RNA interaction – biochemical, fluorescence polarization, dose response (AID 1964);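 further: purified POS-1 fused to maltose binding protein made in E. coli; potency of compounds blocking POS-1 binding to fluorescent RNA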
# T1 sequence (G5EF15 whole entry): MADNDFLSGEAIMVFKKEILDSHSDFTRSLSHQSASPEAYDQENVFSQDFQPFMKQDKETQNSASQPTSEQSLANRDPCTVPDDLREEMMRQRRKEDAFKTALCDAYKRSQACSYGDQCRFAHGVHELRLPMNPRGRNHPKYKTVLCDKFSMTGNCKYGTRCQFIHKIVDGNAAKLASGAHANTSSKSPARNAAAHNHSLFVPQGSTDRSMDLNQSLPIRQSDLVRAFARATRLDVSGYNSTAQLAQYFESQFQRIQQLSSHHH
# [2] = biological target: T2, Corticotropin-releasing factor receptor 2/Corticotropin-releasing factor-binding protein (Homo sapiens, UniProt P24387+Q13324); test: activators of CRF receptor 2 with binding protein – uHTS hits, confirmation (AID 602473); type: functional; conditions: read-out: EC50_Mean
# T2 sequence (Q13324 whole entry): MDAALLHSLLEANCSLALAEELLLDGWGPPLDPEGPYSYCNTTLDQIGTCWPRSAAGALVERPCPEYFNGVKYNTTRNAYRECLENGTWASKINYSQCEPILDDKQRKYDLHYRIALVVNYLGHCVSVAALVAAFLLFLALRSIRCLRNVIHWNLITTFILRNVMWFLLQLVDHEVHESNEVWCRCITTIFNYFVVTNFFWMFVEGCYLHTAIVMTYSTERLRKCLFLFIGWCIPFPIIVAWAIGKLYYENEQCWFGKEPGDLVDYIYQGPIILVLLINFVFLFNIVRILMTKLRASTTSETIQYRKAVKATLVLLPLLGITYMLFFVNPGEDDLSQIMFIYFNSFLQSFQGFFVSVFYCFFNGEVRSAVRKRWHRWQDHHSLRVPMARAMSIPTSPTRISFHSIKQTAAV
# T2 sequence (P24387 whole entry): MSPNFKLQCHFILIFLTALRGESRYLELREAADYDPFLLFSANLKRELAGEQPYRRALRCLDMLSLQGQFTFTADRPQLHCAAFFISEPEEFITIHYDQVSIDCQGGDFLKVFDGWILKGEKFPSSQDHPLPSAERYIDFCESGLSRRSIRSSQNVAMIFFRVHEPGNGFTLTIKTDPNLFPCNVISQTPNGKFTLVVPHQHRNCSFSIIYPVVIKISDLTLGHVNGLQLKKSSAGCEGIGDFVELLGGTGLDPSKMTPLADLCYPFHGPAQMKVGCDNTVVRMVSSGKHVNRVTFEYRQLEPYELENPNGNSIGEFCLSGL
# [3] = biological target: T3, Zinc finger protein mex-5 (Caenorhabditis elegans, UniProt Q9XUB2); test: potency of MEX-5 RNA-binding blockers – biochemical, C. elegans, fluorescence polarization, dose response (AID 1960)
# T3 sequence (Q9XUB2 whole entry): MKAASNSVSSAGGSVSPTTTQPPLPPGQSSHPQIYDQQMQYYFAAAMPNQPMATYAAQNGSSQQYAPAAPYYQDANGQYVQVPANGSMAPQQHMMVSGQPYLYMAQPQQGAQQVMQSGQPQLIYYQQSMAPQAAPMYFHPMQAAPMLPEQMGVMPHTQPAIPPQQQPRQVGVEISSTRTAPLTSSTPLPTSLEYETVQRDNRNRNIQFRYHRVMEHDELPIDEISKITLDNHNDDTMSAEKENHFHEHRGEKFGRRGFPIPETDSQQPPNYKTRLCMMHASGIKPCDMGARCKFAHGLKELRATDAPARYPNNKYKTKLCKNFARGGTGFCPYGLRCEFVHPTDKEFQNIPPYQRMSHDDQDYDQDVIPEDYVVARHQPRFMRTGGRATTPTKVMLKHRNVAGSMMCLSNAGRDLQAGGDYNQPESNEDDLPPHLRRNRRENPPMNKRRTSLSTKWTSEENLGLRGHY
# [4] = viability of uninfected HEp-2 cells – cell-based, HTS, cytotoxicity control for RSV inhibitor project, dose response (AID 2410); type: functional; conditions: human respiratory syncytial virus
# [5] = tested on: Vero; test: cells; type: functional; conditions: Chlorocebus sabaeus
# [6] = biological target: T4, Cytochrome P450 3A4 (Homo sapiens, UniProt P08684); conditions: Potency
# [7] = biological target: T4, Cytochrome P450 3A4
# [8] = biological target: Cytochrome P450 2C9 (Homo sapiens, UniProt P11712)
# [9] = Luminescence Cell-Based Dose Confirmation HTS to Identify Activators of 5'UTR Stem-Loop Driven Alpha-Synuclein mRNA Translation in H4 Neuroglioblastoma Cells. [Related pubchem assays: 1829 (Project Summary), 1814 (Primary HTS)]; type: functional
# [10] = tested on: H4; test: Luminescence Cell-Based Dose Response HTS to Identify Activators of 5'UTR Stem-Loop Driven Prion Protein mRNA Translation in H4 Neuroglioblastoma Cells. [Related pubchem assays: 1829 (Project Summary), 1814 (Primary HTS)]; type: functional; conditions: Homo sapiens
# [11] = Luminescence Cell-Based Dose Response HTS to Identify Activators of Luciferase Translation or Activity in H4 […] Cells. [Related pubchem assays: 1829 (Project Summary), 1814 (Primary HTS)]; type: functional
# [12] = biological target: T5, Rac GTPase-activating protein 1 (Homo sapiens, UniProt Q9H0H5); test: blockers of MgcRacGAP-driven Rac1 GTP hydrolysis – biochemical, ADP Hunter fluorescence, primary and confirmatory, confirmation (AID 624330); type: functional
# T5 sequence (Q9H0H5 whole entry): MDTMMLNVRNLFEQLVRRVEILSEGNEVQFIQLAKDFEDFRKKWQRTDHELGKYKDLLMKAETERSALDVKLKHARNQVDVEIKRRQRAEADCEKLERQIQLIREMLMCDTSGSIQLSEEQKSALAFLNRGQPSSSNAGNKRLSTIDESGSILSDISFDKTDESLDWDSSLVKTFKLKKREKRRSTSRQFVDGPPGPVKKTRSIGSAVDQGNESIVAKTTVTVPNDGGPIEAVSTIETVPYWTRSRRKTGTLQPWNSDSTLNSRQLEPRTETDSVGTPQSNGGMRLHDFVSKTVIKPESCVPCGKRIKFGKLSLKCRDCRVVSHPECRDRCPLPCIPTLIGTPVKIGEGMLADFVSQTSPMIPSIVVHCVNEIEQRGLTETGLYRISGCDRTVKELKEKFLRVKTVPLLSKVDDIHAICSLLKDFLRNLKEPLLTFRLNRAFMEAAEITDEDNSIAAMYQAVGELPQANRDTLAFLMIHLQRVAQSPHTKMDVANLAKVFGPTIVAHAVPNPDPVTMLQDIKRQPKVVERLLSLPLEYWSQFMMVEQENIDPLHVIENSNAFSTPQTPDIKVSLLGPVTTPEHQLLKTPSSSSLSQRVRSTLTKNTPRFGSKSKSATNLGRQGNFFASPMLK
# [13] = biological target: FAD-linked sulfhydryl oxidase ALR (Homo sapiens, UniProt P55789); test: ALR-catalysed DTT oxidation blockers – biochemical, H2O2 detection, luminescence, cherry-pick, dose response (AID 493248)
# [14] = biological target: Large T antigen (Simian virus 40, UniProt P03070); type: functional, Betapolyomavirus macacae;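 further: Confirmatory-stage PubChem screen for compounds that inhibit SV40 T antigen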
# [15] = Luminescence Cell-Based Dose Retest to Confirm Inhibitors of Cancer Stem Cells. [Related pubchem assays (depositor defined):AID2717, AID2721]; type: functional; conditions: Homo sapiens
# [16] = fluconazole-exposed Candida albicans growth modulators – fluorescence, retest, confirmation (AID 2467); type: functional, cell-based
# [17] = NIH-3T3 fibroblast cytotoxicity, dose response, cytotoxicity control, cell-based, fluorescence, Alamar Blue, secondary assay (AID 2327); type: functional;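 further: NIH-3T3 mouse fibroblasts cultured with fluconazole at 8 µg/mL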
# [18] = Luminescence Cell-Based Dose Response HTS to Identify Inhibitors of 5'UTR Stem-Loop Driven Prion Protein mRNA Translation in H4 Neuroglioblastoma Cells. [Related pubchem assays: 1827 (Project Summary), 1813 (Primary HTS)]; type: functional
# [19] = luciferase reporter signal suppression in cells – H4 neuroglioma cells, luminescence, dose response (AID 1990); type: functional, cell-based
# [20] = alpha-synuclein stem-loop luciferase translation blockers – H4 neuroglioma cells, luminescence, confirmation (AID 1988); type: functional, cell-based
# T4 sequence (P08684 whole entry): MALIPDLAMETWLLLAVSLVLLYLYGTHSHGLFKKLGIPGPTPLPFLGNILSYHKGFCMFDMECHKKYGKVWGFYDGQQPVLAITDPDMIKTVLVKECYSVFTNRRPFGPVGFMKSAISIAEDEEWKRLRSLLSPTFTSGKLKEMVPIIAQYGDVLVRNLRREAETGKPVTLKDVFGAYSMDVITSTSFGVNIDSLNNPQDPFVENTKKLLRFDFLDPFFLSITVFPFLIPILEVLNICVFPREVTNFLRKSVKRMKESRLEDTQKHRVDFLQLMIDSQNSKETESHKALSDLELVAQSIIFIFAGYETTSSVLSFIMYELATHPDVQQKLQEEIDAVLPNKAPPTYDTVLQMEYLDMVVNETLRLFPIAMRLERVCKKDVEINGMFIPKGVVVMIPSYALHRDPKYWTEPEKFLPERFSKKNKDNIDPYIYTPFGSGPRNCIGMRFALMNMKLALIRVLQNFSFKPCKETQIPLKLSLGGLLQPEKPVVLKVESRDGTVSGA
# Chain of FAD-linked sulfhydryl oxidase ALR (P55789 whole entry): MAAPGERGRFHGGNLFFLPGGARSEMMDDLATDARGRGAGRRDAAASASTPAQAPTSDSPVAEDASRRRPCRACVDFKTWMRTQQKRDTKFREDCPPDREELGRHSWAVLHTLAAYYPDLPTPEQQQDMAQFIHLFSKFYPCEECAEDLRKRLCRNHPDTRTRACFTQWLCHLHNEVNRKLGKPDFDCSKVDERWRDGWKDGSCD
# Chain of Large T antigen (P03070 whole entry): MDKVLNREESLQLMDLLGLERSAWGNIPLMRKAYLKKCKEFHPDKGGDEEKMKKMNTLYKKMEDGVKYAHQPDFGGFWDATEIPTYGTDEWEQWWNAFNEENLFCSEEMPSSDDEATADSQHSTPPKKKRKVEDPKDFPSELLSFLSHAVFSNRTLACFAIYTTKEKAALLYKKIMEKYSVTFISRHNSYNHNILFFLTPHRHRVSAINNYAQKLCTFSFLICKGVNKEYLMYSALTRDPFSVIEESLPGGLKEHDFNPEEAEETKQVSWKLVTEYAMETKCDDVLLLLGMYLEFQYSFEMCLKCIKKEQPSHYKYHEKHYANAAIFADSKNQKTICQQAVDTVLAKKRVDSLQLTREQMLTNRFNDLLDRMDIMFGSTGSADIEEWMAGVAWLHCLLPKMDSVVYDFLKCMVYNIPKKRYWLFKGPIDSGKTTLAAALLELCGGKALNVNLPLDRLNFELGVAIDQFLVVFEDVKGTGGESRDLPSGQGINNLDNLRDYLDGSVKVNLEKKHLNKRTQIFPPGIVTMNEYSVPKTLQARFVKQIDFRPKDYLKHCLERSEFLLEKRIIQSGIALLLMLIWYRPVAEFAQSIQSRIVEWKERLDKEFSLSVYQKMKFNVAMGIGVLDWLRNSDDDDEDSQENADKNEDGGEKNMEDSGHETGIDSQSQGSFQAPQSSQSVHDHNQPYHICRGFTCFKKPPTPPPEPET
# Chain of Cytochrome P450 2C9 (P11712 whole entry): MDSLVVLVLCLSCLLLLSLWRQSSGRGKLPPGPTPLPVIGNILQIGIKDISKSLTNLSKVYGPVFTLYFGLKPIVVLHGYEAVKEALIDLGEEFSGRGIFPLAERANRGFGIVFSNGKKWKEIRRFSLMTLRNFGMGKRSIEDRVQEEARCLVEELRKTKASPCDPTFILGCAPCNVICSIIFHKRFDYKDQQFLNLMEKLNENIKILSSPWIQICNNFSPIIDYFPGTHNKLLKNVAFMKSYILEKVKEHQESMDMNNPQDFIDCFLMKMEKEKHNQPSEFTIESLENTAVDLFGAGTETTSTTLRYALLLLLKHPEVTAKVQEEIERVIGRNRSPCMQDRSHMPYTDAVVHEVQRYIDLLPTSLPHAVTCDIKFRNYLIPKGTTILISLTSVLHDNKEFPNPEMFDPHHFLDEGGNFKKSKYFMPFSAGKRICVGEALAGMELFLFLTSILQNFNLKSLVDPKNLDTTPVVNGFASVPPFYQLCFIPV
smiles,measurement,setting,value
CC1=CC(=C(C#N)c2nc3ccccc3s2)C=C(C)N1CC1CCCO1 (stereo unspecified),EC50,[1],12.3 µM (inconclusive)
same,EC50,[2],14.7 µM (active)
same,EC50,[3],13.5 µM (inconclusive)
Cc1ccc2cc(/C=C/C(=O)c3ccco3)c(Cl)nc2c1,CC50,[4],21.2 µM (active)
same,CC50,[5],14.3 µM (active)
N#Cc1c(NC(=O)CSc2nc3ccccc3c(=O)n2Cc2ccco2)sc2c1CCCC2,CC50,[5],> 25 µM (active)
Nc1cc(Cl)cc(C(=O)O)c1Cl [CHLORAMBEN],AC50,[6],25.1 µM (inconclusive)
Cc1cccc(/C=C\c2ccccc2)n1,AC50,[6],15.8 µM (inconclusive)
O=C(OCC1CO1)C1CCCCC1C(=O)OCC1CO1 (stereo unspecified),AC50,[6],25.1 µM (inconclusive)
CCn1c(=N)c(S(=O)(=O)c2ccc(F)cc2)cc2c(=O)n3ccccc3nc21,AC50,[7],10 µM (inconclusive)
same,EC50,[1],7.64 µM (active)
same,AC50,[8],22.4 µM (inconclusive)
same,EC50,[3],26.2 µM (inconclusive)
CCOc1ccccc1C1N=C(c2ccc(OC)cc2)CC(c2ccccc2O)N1 (stereo unspecified),EC50,[9],14.2 µM (active)
same,CC50,[5],> 25 µM (active)
same,EC50,[10],12.3 µM (active)
same,EC50,[11],14.3 µM (active)
COc1ccc2c(/C=N/Nc3ccc(C(=O)O)cc3)c[nH]c2c1,IC50,[12],54.9 µM (active)
same,AC50,[13],1.9 µM (active)
COc1cc(/C=N/NC2=NCCCCC2)ccc1O,IC50,[14],6.11 µM (active)
same,IC50,[12],22.5 µM (active)
same,AC50,[13],0.028 µM (active)
CN(C)c1ccc(N)cc1,AC50,[6],15.8 µM (inconclusive)
CC(=O)c1cc2c(cc1O)OC(C)(C)C=C2,AC50,[6],31.6 µM (inconclusive)
Cc1cc(O)c(C=O)c(O)c1C(=O)O [HAEMATOMMIC ACID],AC50,[6],25.1 µM (inconclusive)
COc1ccc(N2CC(NC(=O)N3CCN(c4ccccc4)CC3)CC2=O)cc1 (stereo unspecified),AC50,[13],4.41 µM (active)
COc1ccc(NC(=O)c2ccc(NCCCN3CCOCC3)c([N+](=O)[O-])c2)cc1,EC50,[1],> 300 µM (not active)
same,EC50,[3],> 300 µM (not active)
Oc1c(Cl)cc(Cl)cc1CNc1ccc(Br)cn1,AC50,[15],2.56 µM (active)
same,AC50,[13],5.33 µM (active)
COc1cc(/C=N/NC(=O)CCN2CCCCC2)ccc1O,IC50,[12],32.1 µM (active)
same,AC50,[13],3.05 µM (active)
CCOC(CNC(=O)CCc1c(C)nc2nc(C)nn2c1C)OCC,EC50,[1],> 300 µM (not active)
same,EC50,[3],> 300 µM (not active)
CC(=O)c1ccc(S(=O)(=O)NCC(=O)NC(c2nc3ccccc3[nH]2)C(C)C)cc1 (stereo unspecified),AC50,[13],0.113 µM (active)
COC(=O)[C@@H]1C[C@H]2CC[C@H](O)C[C@H]2N1Cc1ccc(C(F)(F)F)cc1,AC50,[6],12.6 µM (inconclusive)
Cc1ccc(C2=CSC3=NNC4(CCCCC4)NN23)cc1,EC50,[9],9.71 µM (active)
same,EC50,[16],1.76 µM (active)
same,EC50,[17],22.3 µM (inconclusive)
same,EC50,[10],12.4 µM (active)
same,AC50,[13],1.86 µM (active)
CCN1C(C)=C(C(=O)OC)C(c2ccccc2)N2C(=O)[C@](O)(C(=O)OC)CC(C#N)=C12 (stereo partly specified),AC50,[6],3.98 µM (inconclusive)
Cc1ccc(-c2c[nH]c(SCCNC(=O)c3ccco3)n2)cc1,AC50,[13],2.88 µM (active)
O=C(NCc1nnc(S)n1-c1ccc(Cl)c(Cl)c1)c1ccco1,AC50,[13],4.14 µM (active)
COc1ccc(-c2coc3cc(O)ccc3c2=O)c(OC)c1 [2'-METHOXYFORMONETIN],AC50,[6],39.8 µM (inconclusive)
C=C[C@@](C)(O)CC[C@@H]1[C@@]2(C)CCCC(C)(C)[C@@H]2CC[C@@]1(C)O,AC50,[6],10 µM (inconclusive)
CC(C)c1ccccc1NC(=O)COC(=O)CCN1C(=O)/C(=C\C=C\c2ccccc2)SC1=S,EC50,[18],27.8 µM (active)
same,EC50,[19],1.54 µM (active)
same,EC50,[20],7.14 µM (active)
CCOc1cc(/C=C/c2cccc[n+]2C)ccc1OCC(=O)Nc1ccc(C)cc1,EC50,[1],> 300 µM (not active)
same,EC50,[3],> 300 µM (not active)

# Reference: ChEMBL document CHEMBL1201862, “PubChem BioAssay data set” (2004)
